Experimental findings from patent US10208059B2, “Heterocyclic modulators of HIF activity for treatment of disease” (Board of Regents, University of Texas System, priority 2012, dated 2019) are described below.

Counter-ions that a name gives are not always drawn.

As usually defined, the IC50 is the point on the concentration scale where inhibition reaches its midpoint.

The assay relates to 293T-HRE-GFP-luc cells. In words: Cell-based reporter assay for IC50 determinations. Conditions: hypoxia 6 hrs (1% O2), luminescence, read-out: IC50 Classification. How it is done: Cell-Based Reporter Assay for IC50 Determinations
293T-HRE-GFP-luc cells were routinely maintained in DMEM media (high glucose version with GlutaMAX and HEPES, Gibco, catalog #10564) supplemented with 10% fetal bovine serum and 2 μg/mL puromycin (Invitrogen, catalog #A11138-03) using a humidified incubator (normoxia conditions consisting of 37° C., 5% CO2 and ambient O2).
In preparation for the reporter assay, cells were harvested and resuspended in DMEM media (high glucose version with GlutaMAX and HEPES) supplemented with 10% fetal bovine serum. Cells were inoculated into 384-well white Culturplates (Perkin Elmer catalog #6007680) at a density of 12,000 cells/well in a volume of 30 μL. The microplates were incubated overnight (approximately 17-19 hours) at 37° C. with 5% CO2 and ambient O2. Stock solutions of the test compounds were prepared in DMSO (Sigma, Catalog #D2650) and serially diluted 1:3 using DMSO. Compounds were additionally diluted (1:50) with culturemedium and 10 μL were added per well to the Culturplate. Following a 30 min. incubation under normoxia conditions, the plates were incubated in hypoxia for 6 hrs. (37° C., 5% CO2 and 1% O2). Steadylite Plus (Perkin Elmer, catalog #6016751) was then added (40 μL/well), the plates were mixed on an orbital shaker at room temperature in the dark for 15 min., and luminescence was measured using an Envision plate reader (Perkin Elmer). IC50 values were calculated using a four-parameter logistic curve fit. Results are shown below in Table 2; ND indicates no data.
On the technique in general: A reporter such as luciferase makes a cellular process visible.

Regarding `Cc1nc(-c2nc(-c3ccc(OC(F)(F)F)cc3)no2)nn1Cc1ccnc(N2CCNCC2)c1` [Example 1, 4-(4-((5-Methyl-3-(3-(4-(trifluoromethoxy)phenyl)-1,2,4-oxadiazol-5-yl)-1H-1,2,4-triazol-1-yl)methyl)pyridin-2-yl)piperazin-1-ium trifluoroacetate], the IC50 fell in the range of 0.1 to 1 µM.

In the case of `Cc1nc(-c2ccc(-c3ccccc3)o2)nn1Cc1ccnc(N2CCN(C)CC2)c1` [Example 3], the IC50 was in the range of 1 to 10 µM. The value for `FC(F)(F)Oc1ccc(-c2noc(-c3nc(-c4cccnc4)n(Cc4ccccc4)n3)n2)cc1` [Example 4, 3-(1-Benzyl-3-(3-(4-(trifluoromethoxy)phenyl)-1,2,4-oxadiazol-5-yl)-1H-1,2,4-triazol-5-yl)pyridin-1-ium trifluoroacetate] was < 0.1 µM; that for `Cc1nc(-c2nnc(-c3ccccc3)o2)nn1Cc1ccnc(N2CCC(C)(C)CC2)c1` [Example 5, 2-(4,4-Dimethylpiperidin-1-yl)-4-((5-methyl-3-(5-phenyl-1,3,4-oxadiazol-2-yl)-1H-1,2,4-triazol-1-yl)methyl)pyridin-1-ium trifluoroacetate] was 1 to 10 µM.

With `Cc1nc(-c2nnc(-c3ccc(OC(F)(F)F)cc3)o2)nn1Cc1cccc(N2CCN(C)CC2)c1` [Example 6, 1-Methyl-4-(3-((5-methyl-3-(5-(4-(trifluoromethoxy)phenyl)-1,3,4-oxadiazol-2-yl)-1H-1,2,4-triazol-1-yl)methyl)phenyl)piperazin-1-ium trifluoroacetate], the IC50 is < 0.1 µM. The value for `Cc1nc(-c2nnc(-c3ccc(OC(F)(F)F)cc3)o2)nn1Cc1ccnc(N2CCN(C)CC2)c1` [Example 7, 1-Methyl-4-(4-((5-methyl-3-(5-(4-(trifluoromethoxy)phenyl)-1,3,4-oxadiazol-2-yl)-1H-1,2,4-triazol-1-yl)methyl)pyridin-1-ium-2-yl)piperazin-1-ium trifluoroacetate] was 0.1 to 1 µM. As for `Cc1nc(-c2nnc(-c3ccc(C(C)(C)C)cc3)o2)nn1Cc1cccc(N2CCN(C)CC2)c1` [Example 8, 2-(4-(tert-Butyl)phenyl)-5-(5-methyl-1-(3-(4-methylpiperazin-1-yl)benzyl)-1H-1,2,4-triazol-3-yl)-1,3,4-oxadiazole], the IC50 was < 0.1 µM.

For `Cc1nc(-c2nc(-c3ccc(C(C)(C)C)cc3)no2)nn1Cc1ccnc(N2CCN(C)CC2)c1` [Example 9, 3-(4-(tert-Butyl)phenyl)-5-(5-methyl-1-((2-(4-methylpiperazin-1-yl)pyridin-4-yl)methyl)-1H-1,2,4-triazol-3-yl)-1,2,4-oxadiazole], the IC50 was < 0.1 µM. `Cc1nc(-c2nc(-c3ccc(OC(F)(F)F)cc3)no2)nn1Cc1ccnc(N2CCOCC2)c1` [Example 10, 4-(4-((5-Methyl-3-(3-(4-(trifluoromethoxy)phenyl)-1,2,4-oxadiazol-5-yl)-1H-1,2,4-triazol-1-yl)methyl)pyridin-2-yl)morpholine]: the IC50 is < 0.1 µM. The value for `Cc1nc(-c2nc(-c3ccc(OC(F)(F)F)cc3)no2)nn1Cc1cccc(NCCN(C)C)c1` [Example 11, N,N-Dimethyl-2-((3-((5-methyl-3-(3-(4-(trifluoromethoxy)phenyl)-1,2,4-oxadiazol-5-yl)-1H-1,2,4-triazol-1-yl)methyl)phenyl)amino)ethanaminium trifluoroacetate] was 1 to 10 µM; that for `COC(=O)c1cccc(Cn2nc(-c3nc(-c4ccc(OC(F)(F)F)cc4)no3)nc2C)c1` [Example 12, Methyl 3-((5-methyl-3-(3-(4-(trifluoromethoxy)phenyl)-1,2,4-oxadiazol-5-yl)-1H-1,2,4-triazol-1-yl)methyl)benzoate] was < 0.1 µM; that for `Cc1nc(-c2nc(-c3ccc(OC(F)(F)F)cc3)no2)nn1Cc1cccc(C(=O)N2CCN(C)CC2)c1` [Example 13, (3-((5-Methyl-3-(3-(4-(trifluoromethoxy)phenyl)-1,2,4-oxadiazol-5-yl)-1H-1,2,4-triazol-1-yl)methyl)phenyl)(4-methylpiperazin-1-yl)methanone] was < 0.1 µM. As for `COCCCNC(=O)c1cccc(Cn2nc(-c3nc(-c4ccc(OC(F)(F)F)cc4)no3)nc2C)c1` [Example 14, N-(3-methoxypropyl)-3-((5-methyl-3-(3-(4-(trifluoromethoxy)phenyl)-1,2,4-oxadiazol-5-yl)-1H-1,2,4-triazol-1-yl)methyl)benzamide], the IC50 is < 0.1 µM. Next, `Cc1ccc(Cn2nc(-c3nc(-c4ccc(OC(F)(F)F)cc4)no3)nc2C)cc1` [Example 15, 5-(5-Methyl-1-(4-methylbenzyl)-1H-1,2,4-triazol-3-yl)-3-(4-(trifluoromethoxy)phenyl)-1,2,4-oxadiazole]: < 0.1 µM; `Cc1nc(-c2nc(-c3ccc(OC(F)(F)F)cc3)no2)nn1Cc1cn2ccccc2n1` [Example 16, 5-(1-(imidazo[1,2-a]pyridin-2-ylmethyl)-5-methyl-1H-1,2,4-triazol-3-yl)-3-(4-(trifluoromethoxy)phenyl)-1,2,4-oxadiazole]: 0.1 to 1 µM. The value for `Cc1nc(-c2nc(-c3ccc(OC(F)(F)F)cc3)no2)nn1Cc1cnc(Cl)s1` [Example 17, 5-(1-((2-Chlorothiazol-5-yl)methyl)-5-methyl-1H-1,2,4-triazol-3-yl)-3-(4-(trifluoromethoxy)phenyl)-1,2,4-oxadiazole] was 1 to 10 µM; that for `Cc1nc(-c2nc(-c3ccc(OC(F)(F)F)cc3)no2)nn1Cc1cnc(N2CCOCC2)s1` [Example 18, 4-(5-((5-Methyl-3-(3-(4-(trifluoromethoxy)phenyl)-1,2,4-oxadiazol-5-yl)-1H-1,2,4-triazol-1-yl)methyl)thiazol-2-yl)morpholine] was 1 to 10 µM; that for `Cc1nc(-c2nc(-c3ccc(OC(F)(F)F)cc3)no2)nn1Cc1ccnc(Cl)n1` [Example 19, 5-(1-((2-Chloropyrimidin-4-yl)methyl)-5-methyl-1H-1,2,4-triazol-3-yl)-3-(4-(trifluoromethoxy)phenyl)-1,2,4-oxadiazole] was 1 to 10 µM.

On to `Cc1nc(-c2nc(-c3ccc(OC(F)(F)F)cc3)no2)nn1Cc1ccnc(N2CCN(C)CC2)n1` [Example 20, 5-(5-Methyl-1-((2-(4-methylpiperazin-1-yl)pyrimidin-4-yl)methyl)-1H-1,2,4-triazol-3-yl)-3-(4-(trifluoromethoxy)phenyl)-1,2,4-oxadiazole], for which the IC50 was < 0.1 µM. Take `Cc1nc(-c2nc(-c3ccc(S(C)(=O)=O)cc3)no2)nn1Cc1ccnc(N2CCN(C)CC2)c1` [Example 21, 1-Methyl-4-(4-((5-methyl-3-(3-(4-(methylsulfonyl)phenyl)-1,2,4-oxadiazol-5-yl)-1H-1,2,4-triazol-1-yl)methyl)pyridin-1-ium-2-yl)piperazin-1-ium bis-trifluoroacetate]: the IC50 lay within 1 to 10 µM.

Consider `Cc1ccc(-c2noc(-c3nc(C)n(Cc4ccnc(N5CCN(C)CC5)c4)n3)n2)cc1` [Example 22, 1-Methyl-4-(4-((5-methyl-3-(3-(p-tolyl)-1,2,4-oxadiazol-5-yl)-1H-1,2,4-triazol-1-yl)methyl)pyridin-1-ium-2-yl)piperazin-1-ium bis-trifluoroacetate], for which the IC50 fell in the range of 0.1 to 1 µM. For `Cc1nc(-c2nc(-c3ccc(OC(F)F)cc3)no2)nn1Cc1ccnc(N2CCN(C)CC2)c1` [Example 23, 4-(4-((3-(3-(4-(Difluoromethoxy)phenyl)-1,2,4-oxadiazol-5-yl)-5-methyl-1H-1,2,4-triazol-1-yl)methyl)pyridin-1-ium-2-yl)-1-methylpiperazin-1-ium bis-trifluoroacetate], the IC50 lay in the range of 0.1 to 1 µM. The value for `Cc1nc(-c2nc(-c3ccc(OC(F)(F)F)cc3)no2)nn1Cc1ccccc1` [Example 24, 5-(1-Benzyl-5-methyl-1H-1,2,4-triazol-3-yl)-3-(4-(trifluoromethoxy)phenyl)-1,2,4-oxadiazole] was 0.1 to 1 µM. Next, `Cc1nc(-c2nc(-c3ccc(OC(F)(F)F)cc3)no2)nn1Cc1cccc(N2CCN(C)CC2)c1` [Example 25, 1-methyl-4-(3-((5-methyl-3-(3-(4-(trifluoromethoxy)phenyl)-1,2,4-oxadiazol-5-yl)-1H-1,2,4-triazol-1-yl)methyl)phenyl)piperazin-1-ium trifluoroacetate]: < 0.1 µM; `Cc1nc(-c2nc(-c3ccc(OC(F)(F)F)cc3)no2)nn1Cc1ccnc(N2CCC(O)CC2)c1` [Example 26, 1-(4-((5-Methyl-3-(3-(4-(trifluoromethoxy)phenyl)-1,2,4-oxadiazol-5-yl)-1H-1,2,4-triazol-1-yl)methyl)pyridin-2-yl)piperidin-4-ol]: < 0.1 µM. Next, `Cc1nc(-c2nc(-c3ccc(OC(F)(F)F)cc3)no2)nn1Cc1ccnc(N2CCC(C#N)CC2)c1` [Example 27, 1-(4-((5-Methyl-3-(3-(4-(trifluoromethoxy)phenyl)-1,2,4-oxadiazol-5-yl)-1H-1,2,4-triazol-1-yl)methyl)pyridin-2-yl)piperidine-4-carbonitrile]: < 0.1 µM; `Cc1nc(-c2nc(-c3ccc(OC(F)(F)F)cc3)no2)nn1Cc1ccnc(N2CCCC2)c1` [Example 28, 5-(5-Methyl-1-((2-(pyrrolidin-1-yl)pyridin-4-yl)methyl)-1H-1,2,4-triazol-3-yl)-3-(4-(trifluoromethoxy)phenyl)-1,2,4-oxadiazole]: < 0.1 µM.
